Data as given in BindingDB's records for doi:10.1021/acsmedchemlett.5b00177 (Dart Neuroscience, 2015).
pIC50: −log10 of the molar value.

What follows are molecules tested against Methionine aminopeptidase 2 (Homo sapiens) (UniProt P50579) (assay: Inhibition of human METAP2 using Met-Pro-Arg-pNa substrate by para-nitroanilide chromophore release detection assay).
Sequence of Methionine aminopeptidase 2 (Homo sapiens) (P50579 whole entry, looked up): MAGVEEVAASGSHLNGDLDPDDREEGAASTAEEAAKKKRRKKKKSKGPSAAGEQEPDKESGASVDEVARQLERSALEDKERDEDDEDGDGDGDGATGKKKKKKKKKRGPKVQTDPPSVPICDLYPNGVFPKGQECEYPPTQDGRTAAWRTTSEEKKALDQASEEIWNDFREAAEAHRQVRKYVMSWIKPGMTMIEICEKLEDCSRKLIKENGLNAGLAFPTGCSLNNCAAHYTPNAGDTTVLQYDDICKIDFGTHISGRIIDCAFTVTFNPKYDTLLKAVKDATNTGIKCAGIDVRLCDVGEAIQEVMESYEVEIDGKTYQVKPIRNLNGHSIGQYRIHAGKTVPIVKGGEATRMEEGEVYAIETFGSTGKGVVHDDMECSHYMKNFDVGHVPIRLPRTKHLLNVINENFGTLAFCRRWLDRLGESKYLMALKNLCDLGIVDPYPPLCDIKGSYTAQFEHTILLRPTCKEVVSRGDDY
For `O=c1c2cn[nH]c2c2cnc(-c3ncccc3Cl)cc2n1CC(F)(F)F`, the pIC50 was 4.89.
Molecule `CN1CCN(c2ccc(-c3cnc4c5[nH]ncc5c(=O)n(CC(F)(F)F)c4c3)cn2)CC1` has a pIC50 of 5.30.
Molecule `O=c1c2cn[nH]c2c2ncc(-c3ccccc3C(F)(F)F)cc2n1CC(F)(F)F` has a pIC50 of 4.70.
Work on `CN1CCN(c2cncc(-c3cnc4c5[nH]ncc5c(=O)n(CC(F)(F)F)c4c3)c2)CC1` yielded a pIC50 of 4.62.
